Source: patent publication US8791132B2, “Compounds and methods for treatment of hypertension” (Medivation Technologies, Inc., priority 2011, dated 2014)
Where two headings read alike, the source gives them in different places. Values belong to the compound of their own block, whether it stands above or below them.

Experiments:
[1] = biological target: T1, human recombinant adrenergic α2B receptor (Homo sapiens, UniProt P18089); experiment: Radioligand binding, adrenergic α2B ([3H]Rauwolscine); details: for Percentage inhibition of ligand binding, Adrenergic α2B (0.03 μM) / Percentage inhibition of ligand binding, Adrenergic α2B: 0.03 µM
T1 construct: expressed in transfected cells; host or cells: CHO-K1
T1 sequence (P18089 1-450): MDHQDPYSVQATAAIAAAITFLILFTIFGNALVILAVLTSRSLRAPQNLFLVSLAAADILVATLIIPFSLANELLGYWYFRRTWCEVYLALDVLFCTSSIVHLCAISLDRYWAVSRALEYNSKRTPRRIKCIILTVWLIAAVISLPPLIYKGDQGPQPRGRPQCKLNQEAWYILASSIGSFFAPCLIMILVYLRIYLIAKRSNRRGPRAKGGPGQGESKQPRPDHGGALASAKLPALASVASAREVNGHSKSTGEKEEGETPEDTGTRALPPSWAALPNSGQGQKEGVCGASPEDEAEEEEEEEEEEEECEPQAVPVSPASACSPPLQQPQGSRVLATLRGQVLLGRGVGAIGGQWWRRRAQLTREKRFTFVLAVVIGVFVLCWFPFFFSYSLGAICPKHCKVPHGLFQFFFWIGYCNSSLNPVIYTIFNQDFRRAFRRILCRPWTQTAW
In short: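 Membranes from CHO-K1 cells expressing human recombinant α2B, in 50 mM Tris-HCl pH 7.4, 12.5 mM MgCl2, 1 mM EDTA, 0.2% BSA, incubated with compound and 2.5 nM [3H]Rauwolscine, 60 min, 25 °C.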

[2] = biological target: T2, human recombinant adrenergic α2A receptor (Homo sapiens, UniProt P08913); experiment: Radioligand binding, adrenergic α2A ([3H]MK-912); details: for Percentage inhibition of ligand binding, Adrenergic α2A (0.1 μM) / Percentage inhibition of ligand binding, Adrenergic α2A: 0.1 µM
T2 construct: expressed in transfected cells; host or cells: insect Sf9 cells
T2 sequence (P08913 1-465): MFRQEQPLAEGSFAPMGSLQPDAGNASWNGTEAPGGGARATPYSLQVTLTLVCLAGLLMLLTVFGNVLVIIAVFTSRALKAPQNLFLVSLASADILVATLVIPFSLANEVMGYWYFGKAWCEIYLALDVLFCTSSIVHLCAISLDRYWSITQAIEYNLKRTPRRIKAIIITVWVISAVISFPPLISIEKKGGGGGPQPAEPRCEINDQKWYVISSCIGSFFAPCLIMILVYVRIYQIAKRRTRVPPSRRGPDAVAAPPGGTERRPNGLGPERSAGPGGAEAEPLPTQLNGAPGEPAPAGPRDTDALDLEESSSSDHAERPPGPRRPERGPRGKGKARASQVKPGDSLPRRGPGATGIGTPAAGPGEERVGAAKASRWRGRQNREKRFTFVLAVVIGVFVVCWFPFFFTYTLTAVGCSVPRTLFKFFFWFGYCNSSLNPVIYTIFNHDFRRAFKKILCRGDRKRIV
In short: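 Receptor expressed in Sf9 cells, in 50 mM Tris-HCl pH 7.4, 12.5 mM MgCl2, 2 mM EDTA; compounds incubated with 1 nM [3H]MK-912 for 60 min at 25 °C.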

[3] = biological target: T3, rat adrenergic α1B receptor (Rattus norvegicus, UniProt P15823); experiment: Radioligand binding, adrenergic α1B ([3H]Prazosin); details: for Percentage inhibition of ligand binding, Adrenergic α1B (0.1 μM) / Percentage inhibition of ligand binding, Adrenergic α1B: 0.1 µM
T3 construct: rat adrenergic α1B receptor obtained from Wistar Rat liver; from tissue; host or cells: Wistar rat liver
T3 sequence (P15823 1-515): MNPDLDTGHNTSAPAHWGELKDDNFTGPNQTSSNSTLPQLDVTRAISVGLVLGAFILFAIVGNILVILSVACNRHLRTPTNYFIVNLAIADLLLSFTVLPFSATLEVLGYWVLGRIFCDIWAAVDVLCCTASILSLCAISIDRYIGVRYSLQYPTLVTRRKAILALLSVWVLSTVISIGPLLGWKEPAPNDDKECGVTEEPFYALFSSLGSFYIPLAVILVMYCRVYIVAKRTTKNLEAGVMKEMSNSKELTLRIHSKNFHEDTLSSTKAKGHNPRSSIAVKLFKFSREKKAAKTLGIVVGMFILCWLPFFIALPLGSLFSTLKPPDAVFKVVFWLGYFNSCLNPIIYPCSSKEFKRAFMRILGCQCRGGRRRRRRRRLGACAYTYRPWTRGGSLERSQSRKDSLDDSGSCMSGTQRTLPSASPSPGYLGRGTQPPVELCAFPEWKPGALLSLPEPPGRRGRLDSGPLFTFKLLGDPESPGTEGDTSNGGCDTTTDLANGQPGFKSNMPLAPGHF
In short: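 Rat α1B receptor from Wistar rat liver was incubated with 0.25 nM [3H]prazosin for 60 min at 25 °C in 50 mM Tris-HCl, pH 7.4, 0.5 mM EDTA. Non-specific binding was defined with 10 μM phentolamine. Bound radioligand was measured by filtration and counting, reported as percent inhibition of specific binding.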

[4] = compound at 0.03 μM, [3H]Rauwolscine, repeat datapoints each shown
[5] = compound at 0.1 μM, [3H]MK-912, repeat datapoints each shown
[6] = compound at 0.1 μM, [3H]Prazosin, repeat datapoints each shown
[7] = read-out: Percentage inhibition of ligand binding, Adrenergic α2B (0.03 μM), compound at 0.03 μM, [3H]Rauwolscine, repeat datapoints each shown
[8] = read-out: Percentage inhibition of ligand binding, Adrenergic α2A (0.1 μM), compound at 0.1 μM, [3H]MK-912, repeat datapoints each shown
[9] = read-out: Percentage inhibition of ligand binding, Adrenergic α1B (0.1 μM), compound at 0.1 μM, [3H]Prazosin, repeat datapoints each shown
[10] = compound at 0.03 μM, [3H]Rauwolscine, repeat assays, each datapoint shown
[11] = compound at 0.1 μM, [3H]MK-912, repeat assays, each datapoint shown
[12] = compound at 0.1 μM, [3H]Prazosin, repeat assays, each datapoint shown
[13] = compound at 0.03 μM, [3H]Rauwolscine, repeat assays, each datapoint shown, read-out: Percentage inhibition of ligand binding, Adrenergic α2B
[14] = compound at 0.1 μM, [3H]MK-912, repeat assays, each datapoint shown, read-out: Percentage inhibition of ligand binding, Adrenergic α2A
[15] = 0.03 μM compound, read-out: Percentage inhibition of ligand binding, Adrenergic α2B
[16] = 0.1 μM compound, read-out: Percentage inhibition of ligand binding, Adrenergic α2A
[17] = 0.1 μM compound, read-out: Percentage inhibition of ligand binding, Adrenergic α1B

Structure (SMILES): Cc1ccc2c(c1)c1c(n2CC(O)c2cccnc2)CN(C)CC1 (single isomer, unassigned) [43b, 2-(2,6-dimethyl-1,2,3,4-tetrahydro-β-carbolin-9-yl)-1-pyridin-3-yl-ethanol]
Percentage inhibition of ligand binding, Adrenergic α2B [1, 10]: 27%
Percentage inhibition of ligand binding, Adrenergic α2A [2, 11]: 13%
Percentage inhibition of ligand binding, Adrenergic α1B [3, 12]: 46%

Structure (SMILES): Cc1ccc2c(c1)c1c(n2C(C)C(O)c2ccncc2)CCN(C)C1 (stereo not drawn) [127b]
inhibition at 0.03 µM [1, 7]: 1%
inhibition at 0.1 µM [2, 8]: 4%
inhibition at 0.1 µM [3, 9]: 13%

Structure (SMILES): Cc1ccc2c(c1)c1c(n2CC(O)c2ccc(C#N)nc2)CCN(C)C1 (single isomer, unassigned) [140a, 5-[2-(2,8-dimethyl-1,2,3,4-tetrahydro-pyrido[4,3-b]indol-5-yl)-1-hydroxy-ethyl]-pyridine-2-carbonitrile]
Percentage inhibition of ligand binding, Adrenergic α2B (0.03 μM) [1, 4]: 76%
Percentage inhibition of ligand binding, Adrenergic α2A (0.1 μM) [2, 5]: 11%
Percentage inhibition of ligand binding, Adrenergic α1B (0.1 μM) [3, 6]: 59%

Structure (SMILES): Cc1ccc2c(c1)c1c(n2CC(O)c2ccncc2Cl)CCN(C)C1 (single isomer, unassigned) [135b]
Percentage inhibition of ligand binding, Adrenergic α2B (0.03 μM) [1, 4]: 68%
Percentage inhibition of ligand binding, Adrenergic α2A (0.1 μM) [2, 5]: 22%
Percentage inhibition of ligand binding, Adrenergic α1B (0.1 μM) [3, 6]: 30%

Structure (SMILES): Cc1ccc2c(c1)c1c(n2CC(O)c2ccncc2)CC2CCCN2C1 (single isomer, unassigned) [76a]
Percentage inhibition of ligand binding, Adrenergic α2B [1, 10]: 92%
Percentage inhibition of ligand binding, Adrenergic α2A [2, 11]: 21%
Percentage inhibition of ligand binding, Adrenergic α1B [3, 12]: 78%

Structure (SMILES): Cc1ccc2c(c1)c1c(n2CC(C)(O)c2ccc[n+]([O-])c2)CCN(C)C1 (single isomer, unassigned) [56a]
inhibition at 0.03 µM [1, 13]: 20%
inhibition at 0.1 µM [2, 14]: 11%
Percentage inhibition of ligand binding, Adrenergic α1B [3, 12]: 1%

Structure (SMILES): Cc1ccc2c(c1)c1c(n2CC(C)(O)c2ccc(F)cc2)CCN2CCCC12 (single isomer, unassigned) [II-121a, 2-(4-fluoro-phenyl)-1-(9-methyl-1,2,3,4,5,10c-hexahydro-3a,6-diaza-cyclopenta[c]fluoren-6-yl)-propan-2-ol]
Percentage inhibition of ligand binding, Adrenergic α2B (0.03 μM) [1, 4]: 104%
inhibition at 0.03 µM [1, 7]: 103%
Ki [2]: 4.52 nM
Percentage inhibition of ligand binding, Adrenergic α2A (0.1 μM) [2, 5]: 92%
inhibition at 0.03 µM ([2]; read-out: Percentage inhibition of ligand binding, Adrenergic α2A (0.03 μM), compound at 0.03 μM, [3H]MK-912, repeat datapoints each shown): 65%
inhibition at 0.1 µM [2, 8]: 91%
Percentage inhibition of ligand binding, Adrenergic α1B (0.1 μM) [3, 6]: 98%
inhibition at 0.03 µM ([3]; read-out: Percentage inhibition of ligand binding, Adrenergic α1B (0.03 μM), compound at 0.03 μM, [3H]Prazosin, repeat datapoints each shown): 90%
inhibition at 0.1 µM [3, 9]: 97%

Structure (SMILES): Cc1ccc2c(c1)c1c(n2CC(O)c2ccncc2)CN2CCC1C2 (stereo not drawn) [II-69]
inhibition at 0.03 µM [1, 15]: 14%
inhibition at 0.1 µM [2, 16]: 11%
inhibition at 0.1 µM [3, 17]: 45%

Structure (SMILES): CCNC(Cn1c2c(c3cc(C)ccc31)CN(C)CC2)c1ccncc1 (stereo not drawn) [II-8, [2-(2,8-dimethyl-1,2,3,4-tetrahydro-pyrido[4,3-b]indol-5-yl)-1-pyridin-4-yl-ethyl]-ethyl-amine]
inhibition at 0.03 µM [1, 15]: 70%
inhibition at 0.1 µM [2, 16]: 9%
inhibition at 0.1 µM [3, 17]: 6%

Structure (SMILES): Cc1ccc2c(c1)c1c(n2CC(NC2CCCC2)c2ccncc2)CCN(C)C1 (stereo not drawn) [II-9, cyclopentyl-[2-(2,8-dimethyl-1,2,3,4-tetrahydro-pyrido[4,3-b]indol-5-yl)-1-pyridin-4-yl-ethyl]-amine]
inhibition at 0.03 µM [1, 15]: 78%
inhibition at 0.1 µM [2, 16]: 7%
inhibition at 0.1 µM [3, 17]: 30%

Structure (SMILES): CC(O)(Cn1c2c(c3cc(Cl)ccc31)CNCC2)c1ccncn1 (single isomer, unassigned) [42b, 1-(8-chloro-1,2,3,4-tetrahydro-pyrido[4,3-b]indol-5-yl)-2-pyrimidin-4-yl-propan-2-ol]
Percentage inhibition of ligand binding, Adrenergic α2B [1, 10]: 34%
Percentage inhibition of ligand binding, Adrenergic α2A [2, 11]: 12%
Percentage inhibition of ligand binding, Adrenergic α1B [3, 12]: 19%

Other lines, results leading:

Percentage inhibition of ligand binding, Adrenergic α2B (0.03 μM) [1, 4]: 102%
Percentage inhibition of ligand binding, Adrenergic α2A (0.1 μM) [2, 5]: 22%
Percentage inhibition of ligand binding, Adrenergic α1B (0.1 μM) [3, 6]: 95%
Structure (SMILES): Cc1cnc2c(c1)c1c(n2CCc2ccncc2)CCN2CCCC12 (single isomer, unassigned) [II-244a, 9-methyl-6-(2-pyridin-4-yl-ethyl)-2,3,4,5,6,10c-hexahydro-1H-3a,6,7-triaza-cyclopenta[c]fluorene]

inhibition at 0.03 µM [1, 7]: 4%
inhibition at 0.1 µM [2, 8]: 4%
inhibition at 0.1 µM [3, 9]: -4%
Structure (SMILES): CN1CCc2c(c3ncccc3n2CC(C)(O)c2cccnc2)C1 (stereo not drawn) [II-126]

inhibition at 0.03 µM [1, 7]: 26%
Percentage inhibition of ligand binding, Adrenergic α2A (0.1 μM) [2, 5]: 23%
Percentage inhibition of ligand binding, Adrenergic α1B (0.1 μM) [3, 6]: −2%
Structure (SMILES): Cc1ccc2c(c1Cl)c1c(n2CC(C)(O)c2cccnc2)CCN(C)C1 (single isomer, unassigned) [II-124a, 1-(9-chloro-2,8-dimethyl-3,4-dihydro-1H-pyrido[4,3-b]indol-5(2H)-yl)-2-(pyridin-3-yl)propan-2-ol]

inhibition at 0.03 µM [1, 13]: 76%
inhibition at 0.1 µM [2, 14]: 1%
inhibition at 0.1 µM ([3]; compound at 0.1 μM, [3H]Prazosin, repeat assays, each datapoint shown, read-out: Percentage inhibition of ligand binding, Adrenergic α1B): 16%
Structure (SMILES): Cc1ccc2c(c1)c1c(n2CC(O)c2cccnc2)CCN(C)C1 (stereo not drawn) [compound 62]

inhibition at 0.03 µM [1, 7]: 76%
Percentage inhibition of ligand binding, Adrenergic α2A (0.1 μM) [2, 5]: 5%
inhibition at 0.1 µM [3, 9]: 23%
Structure (SMILES): Cc1ccc2c(c1)c1c(n2CC(OC(=O)N(C)C)c2ccncc2)CCN(C)C1 (stereo not drawn) [compound 141, N,N-dimethyl-carbamic acid 2-(2,8-dimethyl-1,2,3,4-tetrahydro-pyrido[4,3-b]indol-5-yl)-1-pyridin-4-yl-ethyl ester]

inhibition at 0.03 µM [1, 7]: 77%
inhibition at 0.1 µM [2, 8]: 9%
inhibition at 0.1 µM [3, 9]: 57%
Structure (SMILES): Cc1ccc2c(c1)c1c(n2CC(O)c2cnn[nH]2)CCN2CCCC12 (stereo not drawn) [II-138]

Percentage inhibition of ligand binding, Adrenergic α2B [1, 10]: 26%
Percentage inhibition of ligand binding, Adrenergic α2A [2, 11]: −1%
Percentage inhibition of ligand binding, Adrenergic α1B [3, 12]: 21%
Structure (SMILES): Cc1cnc2c(c1)c1c(n2CC(O)c2ccncc2)CCNC1 (stereo not drawn) [compound 58, 2-(3-methyl-5,6,7,8-tetrahydro-1,6,9-triaza-fluoren-9-yl)-1-pyridin-4-yl-ethanol]
